Assay results: article PMC11126915, “iATPSnFR2: A high-dynamic-range fluorescent sensor for monitoring intracellular ATP” (Proceedings of the National Academy of Sciences of the …, 2024)

How the values were obtained:
iATPSnFR2.A95A.A119L [1] = system: T1, iATPSnFR2.A95A.A119L; test: Separate head-to-head equilibrium fluorescence titration of 0.2 µM purified sensor HaloTag-JFX650 conjugate with ATP and other nucleoside triphosphates (ex 485 nm, em 535 nm) in Mammalian Cell Imaging Buffer, pH 7.2.; details: n = 3; read-out: Binding curve fits, in µM, for ATP, CTP, GTP (binding specificity)
T1 construct: epsilon subunit residues 1-109, linker 1 VLVG, cpSFGFP, linker 2 ICV, residues 110-129, C-terminal HaloTag conjugated to JFX650
Method: (§1) Purified protein was mixed with 1.1 molar equivalents of JFX650 HaloTag ligand and incubated at room temperature for 1 h and then at 4 °C overnight. Excess HaloTag ligand was removed by gel filtration on a PD-10 column (GE Life Sciences) and reconcentrated by ultrafiltration.
(§2) All in vitro assays were performed in Mammalian Cell Imaging Buffer unless otherwise noted. iATPSnFR2 equilibrium measurements (affinity, specificity, pH) were performed with 0.2 µM protein in a Tecan Spark fluorimeter with 20 nm bandpass windows and excitation at 485 nm and emission at 535 nm.
(§3) [NTP], µM [NTP], µM [NTP], µM
(§4) Supplementary Figure 1d. In vitro characterization: binding specificity. iATPSnFR2 affinity for ATP
(§5) and other nucleoside triphosphates. Three variants of iATPSnFR2.HaloTag-JFX650 titrated with ATP
(§6) and other NTPs, head-to-head. S29W.A95K (left); A95K (center); A95A.A119L (right). ATP (black),
(§7) CTP (cyan), GTP (grey), TTP (purple). Binding curve fits, in µM, for ATP, CTP, GTP are S29W.A95K:
(§8) Error bars are s.d. of three technical replicates.

iATPSnFR2.S29W.A95K [2] = system: T2, iATPSnFR2.S29W.A95K; test: as above; details: n = 3; read-out: Binding curve fits, in µM, for ATP, CTP, GTP (binding specificity)
T2 construct: epsilon subunit residues 1-109, linker 1 VLVG, cpSFGFP, linker 2 ICV, residues 110-129, C-terminal HaloTag conjugated to JFX650
Method: as §1, §2, §3, §4, §5, §6, §7, §8

iATPSnFR2.A95K [3] = system: T3, iATPSnFR2.A95K; test: as above; details: n = 3; read-out: Binding curve fits, in µM, for ATP, CTP, GTP (binding specificity)
T3 construct: epsilon subunit residues 1-109, linker 1 VLVG, cpSFGFP, linker 2 ICV, residues 110-129, C-terminal HaloTag conjugated to JFX650
Method: as §1, §2, §3, §4, §5, §6, §7, §8

iATPSnFR2.A95A.A119L [4] = system: T1, iATPSnFR2.A95A.A119L; test: Equilibrium fluorescence titration of 0.2 µM purified sensor HaloTag-JFX650 conjugate with ATP and ADP head-to-head (ex 485 nm, em 535 nm) in Mammalian Cell Imaging Buffer (20 mM HEPES, 119 mM NaCl, 2.5 mM KCl, 2 mM MgCl2, 2 mM CaCl2, pH 7.2).; details: n = 3; read-out: Binding curve fits, in µM, for ATP and ADP (affinity)
Method: as §1, §2
(§9) Supplementary Figure 1a. In vitro characterization: ATP & ADP affinity. Three variants of iATPSnFR2.HaloTag-JFX650 titrated with ATP (black) and ADP (grey), head-to-head. iATPSnFR2.S29W.A95K (left); iATPSnFR2.A95K (center); iATPSnFR2.A95A.A119L (right). Binding curve fits, in µM, for ATP and ADP are S29W.A95K: 4 µM, 400 µM. A95K: 16 µM, 780 µM.
(§10) A95A.A119L: 530 µM, 5300 µM. Error bars are s.d. of three technical replicates. […]

iATPSnFR2.S29W.A95K [5] = system: T2, iATPSnFR2.S29W.A95K; test: as above; details: n = 3; read-out: Binding curve fits, in µM, for ATP and ADP (affinity)
Method: as §1, §2, §9, §10

iATPSnFR2.A95K [6] = system: T3, iATPSnFR2.A95K; test: as above; details: n = 3; read-out: Binding curve fits, in µM, for ATP and ADP (affinity)
Method: as §1, §2, §9, §10

[7] = system: axonal mitochondria of primary hippocampal neurons; test: mitochondrial matrix ATP imaging in axonal mitochondria of primary neurons; type: cell-based, Sprague-Dawley rats; details: 10 µM, perfusion; KA in 5 mM glucose; oligomycin in 1.25 mM lactate + 1.25 mM pyruvate
Excerpt: iATPSnFR2.HaloTag variants were subcloned by restriction digest into an AAV vector with a CAG promoter via BglII/PstI digest from the bacterial expression vector. The pAAV.CAG vector includes an extra serine after the initial methionine and lacks a polyhistidine tag. To target the sensor to the mitochondrial matrix, four repeats of COX8(mito) leader sequence ([…]) separated by spacer (IHSLPPEGPW) were introduced at the N terminus of iAPTSnFR2(A95A/A119L). HaloTag was incorporated at the N-terminal of iATPSnFR2.A95A.A119L separated by a linker (LQSTGSGNAVGQDTQER). […]
(§11) Coverslips were loaded onto a custom chamber ([32]), mounted on a Zeiss inverted microscope and perfused at ~100 µL min^–1 with Tyrode’s solution containing: 119 mM NaCl, 2.5 mM KCl, 5 mM glucose, 50 mM HEPES, 2 mM CaCl2, 2 mM MgCl2, 50 µM DL-2-amino-5-phosphonovaleric acid (AP5), and 10 µM 6-cyano-7-nitroquinoxaline-2,3-dione (CNQX), adjusted to pH 7.4. […] Fluorescence was stimulated with OBIS 488 nm LX or OBIS 637 nm LS lasers (Coherent) passing through a laser speckle reducer (LSR 3005 at 12° diffusion angle, Optotune). […]
Time series of imaging pairs (HaloTag and iATPSnFR2) were split into two independent image series using a custom-written Fiji routine to facilitate analysis. […] Synaptic boutons signals were analyzed using homemade script routines in Igor-pro v6.3.7.2 (WaveMetrics, Lake Oswego, OR, USA). […]

[8] = system: nerve terminals of dissociated hippocampal neurons; test: ATP depletion in nerve terminals during AP firing; type: cell-based, Sprague-Dawley rats; details: 5 mM glucose + 10 µM KA, 6 s at 50 Hz
Method: (§12) Primary neuronal cultures were prepared as previously described ([31]). Hippocampal CA1 to CA3 regions were dissected, dissociated, and plated onto poly-L-ornithine-coated coverslips. Plating media consisted of the minimal essential medium, 0.5% glucose, insulin (0.024 g/L), transferrin ([…]), GlutaMAX 1%, N-21 (2%), and fetal bovine serum (10%). After 1 to 3 days in vitro (DIV), cells were fed and maintained in media with the following modifications: cytosine β-D-arabinofuranoside (4 µM) and FBS 5%. Cultures were incubated at 37 °C in a 95% air/5% CO2 incubator. Calcium phosphate–mediated gene transfer was performed on DIV 6 to 8, and neurons were used for experiments on DIV 14 to 21.
as §11

[9] = system: synaptic boutons of hippocampal neurons; test: spontaneous ATP depletion in synaptic boutons (synaptophysin-targeted iATPSnFR2); type: cell-based, Sprague-Dawley rats; details: 5 mM glucose + 10 µM KA + 0.3 µM TTX, iATPSnFR2.A95A.A119L.HaloTag-JFX650
Method: as §12, §11

Rho° cells = test: green:red ratio imaging of fibroblasts expressing iATPSnFR2-HaloTag variants; type: cell-based, mouse; details: 10 mM 2dOG replacing 10 mM glucose
Method: (§13) Rho° and the parental LMTK- cells were maintained in T-75 flasks with Dulbecco’s Modified Eagle's Medium (DMEM) + 10% Fetal Bovine Serum (FBS) + 1 mM pyruvate + 5 µM uridine. Two days prior to transfection, they were split into separate rows of a 24-well plate (half Rho°, half LMTK) at 0.6 and 0.1 million cells per well, respectively. Cells were transfected with iATPSnFR2.HaloTag variants by lipofectamine (0.5 µg DNA + 2 µL lipofectamine 2,000 per well) for 4 to 6 h in DMEM lacking FBS or antibiotics. Transfection medium was replaced with fresh DMEM + 10% FBS + penicillin/streptomycin overnight. Cells were labeled with JFX650 HaloTag ligand by adding the fluorophore to 100 nM for an hour. Cells were washed with Mammalian Cell Imaging Buffer and imaged in a Cytation 5 imaging reader (BioTek) over the course of about 2 h. After about 20 min of imaging to establish a baseline fluorescence, the culture plate was removed from the instrument, and buffer was replaced with the query buffer. The equilibration buffer contained 10 mM glucose, and the query buffers contained 10 mM 2dOG.
(§14) Images were background subtracted and aligned for movement artifacts with the Gen5 software package that controls the Cytation 5 instrument. Images were assembled as TIF stacks and imported into ImageJ. […] Those ROIs were used to determine the ratio of green to red fluorescence for each well. […]

LMTK- cells = test: as above; type: cell-based, mouse; details: 10 mM 2dOG replacing 10 mM glucose
Method: as §13, §14

Question: Nc1ncnc2c1ncn2[C@@H]1O[C@H](COP(=O)(O)OP(=O)(O)OP(=O)(O)O)[C@@H](O)[C@H]1O [ATP, adenosine triphosphate] was tested. Which Kd (iATPSnFR2.A95A.A119L [1]) did it give?
Answer: Its Kd is 750 µM.

Question: And the Kd (iATPSnFR2.S29W.A95K [2])?
Answer: The Kd was 20 µM.

Question: And the Kd (iATPSnFR2.A95K [3])?
Answer: Its Kd is 30 µM.

Question: What about the Kd (iATPSnFR2.A95A.A119L [4]) of the same compound?
Answer: Its Kd is 530 µM.

Question: And the Kd (iATPSnFR2.S29W.A95K [5])?
Answer: Its Kd is 4 µM.

Question: What about the Kd (iATPSnFR2.A95K [6]) of the same compound?
Answer: The Kd was 16 µM.

Question: For Nc1ccn([C@@H]2O[C@H](COP(=O)(O)OP(=O)(O)OP(=O)(O)O)[C@@H](O)[C@H]2O)c(=O)n1 [CTP, cytidine triphosphate], which Kd (iATPSnFR2.A95A.A119L [1]) is on record?
Answer: The Kd was ~10000 µM.

Question: What about the Kd (iATPSnFR2.S29W.A95K [2]) of the same compound?
Answer: The Kd was 50 µM.

Question: What about the Kd (iATPSnFR2.A95K [3]) of the same compound?
Answer: The Kd was 100 µM.

Question: What does the source list for Nc1nc2c(ncn2[C@@H]2O[C@H](COP(=O)(O)OP(=O)(O)OP(=O)(O)O)[C@@H](O)[C@H]2O)c(=O)[nH]1 [GTP, guanosine triphosphate]?
Answer: Kd (iATPSnFR2.A95A.A119L [1]): ~10000 µM; Kd (iATPSnFR2.S29W.A95K [2]): 430 µM; Kd (iATPSnFR2.A95K [3]): 1500 µM

Question: With CC(C)[C@H]1CC[C@@]2(CO2)[C@H]2C(=O)OCC(C(=O)O)=C[C@H]12 [KA, koningic acid] as the compound, how does the “effect on mitochondrial ATP signal (mito-iATPSnFR2.HaloTag)” value [7] read?
Answer: The value was “rapid drop in the ATP signal”.

Question: And the “effect on iATPSnFR2 fluorescence during AP stimulation” value [8]?
Answer: The value was “even greater decrease in fluorescence that did not recover”.

Question: What about the “effect on average green to red fluorescence ratio in boutons” value [9] of the same compound?
Answer: The value was “gradually declined over a 5 to 10 min period”.

Question: How did the Kd (iATPSnFR2.A95A.A119L [4]) turn out when Nc1ncnc2c1ncn2[C@@H]1O[C@H](COP(=O)(O)OP(=O)(O)O)[C@@H](O)[C@H]1O [ADP, adenosine diphosphate] was run?
Answer: The Kd was 5300 µM.

Question: What about the Kd (iATPSnFR2.S29W.A95K [5]) of the same compound?
Answer: Its Kd is 400 µM.

Question: And the Kd (iATPSnFR2.A95K [6])?
Answer: Its Kd is 780 µM.

Question: CC[C@H]1/C=C/C=C/C[C@@H](C)[C@H](O)[C@@](C)(O)C(=O)[C@@H](C)[C@H](O)[C@@H](C)C(=O)[C@@H](C)[C@H](O)[C@@H](C)/C=C/C(=O)O[C@@H]2[C@H](C)[C@H](CC1)O[C@]1(CC[C@H](C)[C@H](C[C@@H](C)O)O1)[C@H]2C [oligomycin] was tested. Which “effect on mitochondrial ATP signal (mito-iATPSnFR2.HaloTag)” value [7] did it give?
Answer: The value was “further collapse of the ATP signal”.

Question: Which “effect on green fluorescence of iATPSnFR2 variants” value (Rho° cells) does the source give for O=CC[C@@H](O)[C@H](O)[C@H](O)CO [2dOG, 2-deoxyglucose] here?
Answer: The value was “green fluorescence rapidly dropped”.

Question: And the “effect on green fluorescence of iATPSnFR2 variants” value (LMTK- cells)?
Answer: Its value is “decreased fluorescence only in those expressing the weakest affinity variant”.
